In patent publication US20230002367A1, “BIFUNCTIONAL COMPOUNDS” (Hoffmann-La Roche Inc., priority 2019, published 2023):

Molecular target: T1, SMARCA2 (Homo sapiens, UniProt P51531)
T1 construct: endogenous in cells
Experiment: SMARCA2 HiBiT degradation assay (cellular)
Format: cell-based
Conditions: for Emax: A549, Emax = amount of residual protein remaining in the cell following compound treatment; for DC50: SMARCA2 HiBiT cells, luminescence readout, 11-point titration from 10 μM, 6 hours or 16 hours, read-out: HiBit A549 SMARCA2 IP

T1 sequence (P51531 whole entry): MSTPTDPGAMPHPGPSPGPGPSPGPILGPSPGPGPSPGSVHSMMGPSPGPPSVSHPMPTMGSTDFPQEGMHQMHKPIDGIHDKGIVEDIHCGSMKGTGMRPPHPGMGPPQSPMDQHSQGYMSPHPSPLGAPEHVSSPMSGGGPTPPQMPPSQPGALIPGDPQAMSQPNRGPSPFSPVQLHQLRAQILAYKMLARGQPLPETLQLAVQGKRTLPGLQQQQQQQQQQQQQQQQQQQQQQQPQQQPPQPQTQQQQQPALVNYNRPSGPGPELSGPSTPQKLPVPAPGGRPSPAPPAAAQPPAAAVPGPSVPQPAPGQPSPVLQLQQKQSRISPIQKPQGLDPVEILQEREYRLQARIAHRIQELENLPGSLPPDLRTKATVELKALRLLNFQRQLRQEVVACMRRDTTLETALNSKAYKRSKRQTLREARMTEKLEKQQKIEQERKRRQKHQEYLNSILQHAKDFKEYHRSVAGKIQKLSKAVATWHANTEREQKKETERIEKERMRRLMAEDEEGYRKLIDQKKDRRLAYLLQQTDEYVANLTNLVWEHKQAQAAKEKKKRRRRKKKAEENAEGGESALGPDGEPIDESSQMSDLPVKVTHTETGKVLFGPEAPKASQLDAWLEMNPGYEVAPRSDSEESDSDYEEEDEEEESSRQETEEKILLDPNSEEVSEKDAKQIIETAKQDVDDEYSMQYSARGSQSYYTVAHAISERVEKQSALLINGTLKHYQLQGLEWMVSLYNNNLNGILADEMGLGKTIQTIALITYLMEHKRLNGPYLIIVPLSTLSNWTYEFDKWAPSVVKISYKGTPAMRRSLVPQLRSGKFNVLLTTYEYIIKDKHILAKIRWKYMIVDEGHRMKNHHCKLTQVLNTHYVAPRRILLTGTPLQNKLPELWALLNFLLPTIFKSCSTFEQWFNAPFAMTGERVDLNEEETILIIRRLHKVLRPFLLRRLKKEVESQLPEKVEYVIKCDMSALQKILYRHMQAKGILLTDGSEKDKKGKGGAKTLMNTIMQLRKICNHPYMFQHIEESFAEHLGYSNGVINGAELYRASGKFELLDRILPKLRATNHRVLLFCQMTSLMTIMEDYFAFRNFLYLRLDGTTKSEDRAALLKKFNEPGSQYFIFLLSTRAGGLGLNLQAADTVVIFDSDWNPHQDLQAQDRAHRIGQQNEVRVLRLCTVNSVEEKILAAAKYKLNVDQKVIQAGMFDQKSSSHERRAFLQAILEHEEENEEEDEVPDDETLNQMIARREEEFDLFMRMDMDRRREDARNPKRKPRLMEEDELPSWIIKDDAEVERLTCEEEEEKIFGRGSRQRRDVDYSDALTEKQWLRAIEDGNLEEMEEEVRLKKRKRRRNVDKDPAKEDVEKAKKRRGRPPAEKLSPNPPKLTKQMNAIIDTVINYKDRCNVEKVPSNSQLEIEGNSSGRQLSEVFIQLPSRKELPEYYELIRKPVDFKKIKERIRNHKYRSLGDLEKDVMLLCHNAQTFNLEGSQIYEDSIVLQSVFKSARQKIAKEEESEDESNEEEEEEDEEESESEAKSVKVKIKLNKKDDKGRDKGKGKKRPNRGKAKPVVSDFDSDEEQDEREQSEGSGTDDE

Row | Compound | Emax [%] | DC50 [nM]
1 | Cc1ncsc1-c1ccc([C@H](C)NC(=O)[C@@H]2C[C@@H](O)CN2C(=O)[C@@H](NC(=O)CCCCCCCCCCC(=O)N2CCN(CCOc3cccc(CCOc4cc(-c5ccccc5O)nnc4N)c3)CC2)C(C)(C)C)cc1 [Example 59, (2S,4R)-1-[(2S)-2-[[12-[4-[2-[3-[2-[3-amino-6-(2-hydroxyphenyl)pyridazin-4-yl]oxyethyl]phenoxy]ethyl]piperazin-1-yl]-12-oxo-dodecanoyl]amino]-3,3-dimethyl-butanoyl]-4-hydroxy-N-[(1S)-1-[4-(4-methylthiazol-5-yl)phenyl]ethyl]pyrrolidine-2-carboxamide] | 23 | 305
2 | Cc1ncsc1-c1ccc([C@H](C)NC(=O)[C@@H]2C[C@@H](O)CN2C(=O)[C@@H](NC(=O)CCCCCCCCCCCCC(=O)N2CCN(CCOc3cccc(CCOc4cc(-c5ccccc5O)nnc4N)c3)CC2)C(C)(C)C)cc1 [Example 60, (2S,4R)-1-[(2S)-2-[[14-[4-[2-[3-[2-[3-amino-6-(2-hydroxyphenyl)pyridazin-4-yl]oxyethyl]phenoxy]ethyl]piperazin-1-yl]-14-oxo-tetradecanoyl]amino]-3,3-dimethyl-butanoyl]-4-hydroxy-N-[(1S)-1-[4-(4-methylthiazol-5-yl)phenyl]ethyl]pyrrolidine-2-carboxamide] | 24 | 300
3 | Cc1ncsc1-c1ccc(CNC(=O)[C@@H]2C[C@@H](O)CN2C(=O)[C@@H](NC(=O)CCCCCC(=O)N2CCN(Cc3cccc(C#Cc4cc(-c5ccccc5O)nnc4N)c3)CC2)C(C)(C)C)cc1 [Example 61, (2S,4R)-1-[(2S)-2-[[7-[4-[[3-[2-[3-amino-6-(2-hydroxyphenyl)pyridazin-4-yl]ethynyl]phenyl]methyl]piperazin-1-yl]-7-oxo-heptanoyl]amino]-3,3-dimethyl-butanoyl]-4-hydroxy-N-[[4-(4-methylthiazol-5-yl)phenyl]methyl]pyrrolidine-2-carboxamide] | 59 | 519
4 | Cc1ncsc1-c1ccc(CNC(=O)[C@@H]2C[C@@H](O)CN2C(=O)[C@@H](NC(=O)CCCCCCCCC(=O)N2CCN(CCOc3ccc(N4C5CCC4CN(c4cc(-c6ccccc6O)nnc4N)C5)cc3)CC2)C(C)(C)C)cc1 [Example 68, (2S,4R)-1-[(2S)-2-[[10-[4-[2-[4-[3-[3-amino-6-(2-hydroxyphenyl)pyridazin-4-yl]-3,8-diazabicyclo[3.2.1]octan-8-yl]phenoxy]ethyl]piperazin-1-yl]-10-oxo-decanoyl]amino]-3,3-dimethyl-butanoyl]-4-hydroxy-N-[[4-(4-methylthiazol-5-yl)phenyl]methyl]pyrrolidine-2-carboxamide] | 50 | 2320
5 | Cc1ncsc1-c1ccc([C@H](C)NC(=O)[C@@H]2C[C@@H](O)CN2C(=O)[C@@H](NC(=O)CCC(=O)N2CCN(CCOc3cccc(CCOc4cc(-c5ccccc5O)nnc4N)c3)CC2)C(C)(C)C)cc1 [Example 73, (2S,4R)-1-[(2S)-2-[[4-[4-[2-[3-[2-[3-amino-6-(2-hydroxyphenyl)pyridazin-4-yl]oxyethyl]phenoxy]ethyl]piperazin-1-yl]-4-oxo-butanoyl]amino]-3,3-dimethyl-butanoyl]-4-hydroxy-N-[(1S)-1-[4-(4-methylthiazol-5-yl)phenyl]ethyl]pyrrolidine-2-carboxamide] | 29 | 1650
6 | Cc1ncsc1-c1ccc(CNC(=O)[C@@H]2C[C@@H](O)CN2C(=O)[C@@H](NC(=O)CCCCCCCCC(=O)N2CCN(Cc3cccc(-c4cc(-c5ccccc5O)nnc4N)c3F)CC2)C(C)(C)C)cc1 [Example 74, (2S,4R)-1-[(2S)-2-[[10-[4-[[3-[3-amino-6-(2-hydroxyphenyl)pyridazin-4-yl]-2-fluoro-phenyl]methyl]piperazin-1-yl]-10-oxo-decanoyl]amino]-3,3-dimethyl-butanoyl]-4-hydroxy-N-[[4-(4-methylthiazol-5-yl)phenyl]methyl]pyrrolidine-2-carboxamide] | 63 | 575
7 | Cc1ncsc1-c1ccc([C@H](C)NC(=O)[C@@H]2C[C@@H](O)CN2C(=O)[C@@H](NC(=O)CCCCCC(=O)N2CCN(Cc3cccc(OC4CN(c5cc(-c6ccccc6O)nnc5N)C4)c3)CC2)C(C)(C)C)cc1 [Example 83, (2S,4R)-1-[(2S)-2-[[7-[4-[[3-[1-[3-amino-6-(2-hydroxyphenyl)pyridazin-4-yl]azetidin-3-yl]oxyphenyl]methyl]piperazin-1-yl]-7-oxo-heptanoyl]amino]-3,3-dimethyl-butanoyl]-4-hydroxy-N-[(1S)-1-[4-(4-methylthiazol-5-yl)phenyl]ethyl]pyrrolidine-2-carboxamide] | 44 | 789
8 | Cc1ncsc1-c1ccc(CNC(=O)[C@@H]2C[C@@H](O)CN2C(=O)[C@@H](NC(=O)CCCCCCCCCCC(=O)N2C3CCC2CN(c2cc(-c4ccccc4O)nnc2N)C3)C(C)(C)C)cc1 [Example 84, (2S,4R)-1-[(2S)-2-[[12-[3-[3-Amino-6-(2-hydroxyphenyl)pyridazin-4-yl]-3,8-diazabicyclo[3.2.1]octan-8-yl]-12-oxo-dodecanoyl]amino]-3,3-dimethyl-butanoyl]-4-hydroxy-N-[[4-(4-methylthiazol-5-yl)phenyl]methyl]pyrrolidine-2-carboxamide] | 38 | 902
9 | Cc1ncsc1-c1ccc(CNC(=O)[C@@H]2C[C@@H](O)CN2C(=O)[C@@H](NC(=O)CCCCCC(=O)N2C3CCC2CN(c2cc(-c4ccccc4O)nnc2N)C3)C(C)(C)C)cc1 [Example 85, (2S,4R)-1-[(2S)-2-[[7-[3-[3-Amino-6-(2-hydroxyphenyl)pyridazin-4-yl]-3,8-diazabicyclo[3.2.1]octan-8-yl]-7-oxo-heptanoyl]amino]-3,3-dimethyl-butanoyl]-4-hydroxy-N-[[4-(4-methylthiazol-5-yl)phenyl]methyl]pyrrolidine-2-carboxamide] | 31 | 2190
10 | Cc1ncsc1-c1ccc([C@H](C)NC(=O)[C@@H]2C[C@@H](O)CN2C(=O)[C@@H](NC(=O)CCCCCCCCC(=O)N2CCN(Cc3cccc(OC4CN(c5cc(-c6ccccc6O)nnc5N)C4)c3)CC2)C(C)(C)C)cc1 [Example 86, (2S,4R)-1-[(2S)-2-[[10-[4-[[3-[1-[3-amino-6-(2-hydroxyphenyl)pyridazin-4-yl]azetidin-3-yl]oxyphenyl]methyl]piperazin-1-yl]-10-oxo-decanoyl]amino]-3,3-dimethyl-butanoyl]-4-hydroxy-N-[(1S)-1-[4-(4-methylthiazol-5-yl)phenyl]ethyl]pyrrolidine-2-carboxamide] | 25 | 223
11 | Cc1ncsc1-c1ccc(CNC(=O)[C@@H]2C[C@@H](O)CN2C(=O)[C@@H](NC(=O)CCCCCCCN2CCN(C(=O)CN(C)Cc3ccc(-c4cc(-c5ccccc5O)nnc4N)cc3)CC2)C(C)(C)C)cc1 [Example 87, (2S,4R)-1-[(2S)-2-[8-[4-[2-[[4-[3-amino-6-(2-hydroxyphenyl)pyridazin-4-yl]phenyl]methyl-methyl-amino]acetyl]piperazin-1-yl]octanoylamino]-3,3-dimethyl-butanoyl]-4-hydroxy-N-[[4-(4-methylthiazol-5-yl)phenyl]methyl]pyrrolidine-2-carboxamide] | 51 | 1300
